According to EPA's ToxRefDB 2:

Columns and labels:
[1] = test system: rat; details: Subchronic oral toxicity in rodents, wistar, Feed, dose end: 90 day, group: systemic, systemic / pathology microscopic / stomach / hyperplasia + systemic / pathology microscopic / stomach / infiltration cellular + systemic / …
[2] = test system: rat; details: Combined chronic toxicity/carcinogenicity, fischer, Oral, Feed, dose end: 24 month, group: systemic
[3] = test system: dog; details: Subchronic oral toxicity in nonrodent, beagle, Feed, dose end: 64 day, group: systemic, systemic / clinical chemistry / cytochrome p450, nos / cytochrome p450, nos + systemic / clinical chemistry / o-demethylase / o-demethylase…
[4] = test system: rat; details: Multigenerational reproductive toxicity study, wistar, Oral, Feed, dose end: 2 generation
[5] = test system: mouse; details: Carcinogenicity, other, Oral, Feed, dose end: 24 month, group: systemic
[6] = test system: rabbit; details: Prenatal developmental toxicity study, himalayan, Oral, Gavage/Intubation, dose end: 28 GD
[7] = test system: mouse; details: Subchronic oral toxicity in rodents, b6c3f1, Feed, dose end: 90 day, group: systemic, systemic / in life observation / body weight / body weight + systemic / in life observation / body weight / body weight gain + systemic / in…
[8] = test system: rat; details: Subchronic oral toxicity in rodents, fischer, Feed, dose end: 90 day, group: systemic, systemic / pathology microscopic / stomach / hyperplasia
[9] = test system: rat; details: Multigenerational reproductive toxicity study, other, Oral, Feed, dose end: 2 generation
[10] = test system: rat; details: Combined chronic toxicity/carcinogenicity, fischer, Oral, Feed, dose end: 104 week, group: systemic
[11] = test system: rabbit; details: Prenatal developmental toxicity study; new zealand white; Oral; Gavage/Intubation; dose end: 19 GD; group: maternal; reproductive / reproductive performance / aborted / aborted + systemic / in life observation / body weight / body weight gain + systemic / …
[12] = test system: mouse; details: Carcinogenicity; b6c3f1; Oral; Feed; dose end: 104 week; group: systemic; systemic / in life observation / body weight / body weight gain + systemic / in life observation / food consumption / food consumption + …
[13] = test system: dog; details: Chronic toxicity; beagle; Oral; Capsule; dose end: 52 week; group: systemic; systemic / pathology microscopic / kidney / dilatation + systemic / pathology microscopic / kidney / fibrosis + systemic / urinalysis / …
[14] = test system: dog; details: Subchronic oral toxicity in nonrodent, beagle, Capsule, dose end: 13 week, group: systemic
[15] = test system: rat; details: Multigenerational reproductive toxicity study, other, Oral, Feed, dose end: 2 generation; remark: listed apart in the source
[16] = test system: rat; details: Combined chronic toxicity/carcinogenicity, sprague dawley, Oral, Feed, dose end: 104 week
[17] = test system: mouse; details: Carcinogenicity, cd1, Oral, Feed, dose end: 105 week, group: systemic
[18] = test system: rat; details: Subchronic oral toxicity in rodents, other, Feed, dose end: 13 week, group: systemic
[19] = test system: dog; details: Chronic toxicity; beagle; Oral; Feed; dose end: 12 month; group: systemic; systemic / pathology microscopic / adrenal gland / fatty change + systemic / pathology microscopic / adrenal gland / hyperplasia + systemic…
[20] = test system: rat; details: Peri- and post-natal toxicity study (Segment III), sprague dawley, Oral, Gavage/Intubation, dose end: 42 PND
[21] = test system: dog; details: Chronic toxicity, beagle, Oral, Feed, dose end: 12 month, group: systemic
[22] = systemic / organ weight / kidney / relative to body weight
[23] = group: parental, systemic / pathology microscopic / stomach / vacuolization
[24] = group: reproductive, reproductive / offspring survival early / birth index / live birth index
[25] = systemic / hematology / leukocyte (wbc) count differential / leukocyte (wbc) + systemic / hematology / mean corpuscular hemoglobin (mch) / …
[26] = systemic / hematology / mean corpuscular hemoglobin concentration (mchc) / mean corpuscular hemoglobin concentration (mchc)
[27] = group: developmental, developmental / developmental malformation / bone / absent + developmental / developmental malformation / bone / enlarged fontanel + …
[28] = group: maternal, reproductive / reproductive performance / aborted / aborted + systemic / in life observation / body weight / body weight + systemic / in …
[29] = group: offspring, systemic / in life observation / body weight / offspring (pup) weight
[30] = group: parental, systemic / pathology gross / stomach / thickened + systemic / pathology microscopic / stomach / acanthosis + systemic / pathology …
[31] = systemic / clinical chemistry / potassium / potassium + systemic / in life observation / clinical signs / abnormal feces + systemic / …
[32] = group: cholinesterase, cholinesterase / cholinesterase / cholinesterase / cholinesterase (che)
[33] = group: offspring, systemic / in life observation / body weight / offspring (pup) weight + developmental / offspring survival late / lactation index / …
[34] = group: parental, systemic / in life observation / body weight / body weight gain
[35] = group: reproductive, reproductive / offspring survival early / litter size / litter size
[36] = group: cholinesterase, cholinesterase / cholinesterase / cholinesterase / erythrocyte cholinesterase (che) + cholinesterase / cholinesterase / cholinesterase / …
[37] = group: cholinesterase, cholinesterase / cholinesterase / cholinesterase / plasma cholinesterase (che)
[38] = group: systemic, systemic / clinical chemistry / urea nitrogen / urea nitrogen
[39] = group: systemic, systemic / clinical chemistry / urea nitrogen / urea nitrogen + systemic / organ weight / brain / relative to body weight + systemic / organ…
[40] = systemic / in life observation / body weight / body weight gain
[41] = systemic / pathology microscopic / kidney / hypertrophy
[42] = systemic / pathology microscopic / kidney / hypertrophy + systemic / in life observation / body weight / body weight + systemic / in life …
[43] = group: maternal, reproductive / offspring survival early / dead fetuses / dead fetuses
[44] = group: offspring, systemic / hematology / leukocyte (wbc) count differential / leukocyte (wbc) + systemic / in life observation / body weight / offspring (pup…
[45] = systemic / organ weight / spleen / absolute + systemic / organ weight / spleen / relative to body weight + systemic / pathology microscopic…
[46] = systemic / pathology gross / liver / accentuated lobular pattern + systemic / pathology microscopic / eye / lesion(s) (nos) + systemic / …

Compound CCCOc1nn(C(=O)[N-]S(=O)(=O)c2ccccc2C(=O)OC)c(=O)n1C.[Na+] [Propoxycarbazone-sodium] has an LEL [1] of 1510 mg/kg/day, an LOAEL [1] of 1510 mg/kg/day and an NEL [1] of 286 mg/kg/day. It also gave an NOAEL [1] of 286 mg/kg/day, an LOAEL ([2]; systemic / in life observation / body weight / body weight gain + systemic / urinalysis / ph / ph) of 459 mg/kg/day and an NOAEL ([2]; systemic / in life observation / body weight / body weight gain + systemic / urinalysis / ph / ph + systemic / pathology gross / full gross …) of 43 mg/kg/day. For the same compound, the LEL [2, 22] was 43 mg/kg/day, the NEL [2, 22] was < 43 mg/kg/day and the LEL [3] was 1180 mg/kg/day. The LOAEL [3] was > 1180 mg/kg/day, the NEL [3] was 286 mg/kg/day and the NOAEL [3] was ≥ 1180 mg/kg/day. The LEL [4, 23] was 323 mg/kg/day, the LOAEL [4, 23] was 323 mg/kg/day and the NEL [4, 23] was 79.6 mg/kg/day. The NOAEL [4, 23] was 79.6 mg/kg/day, the LEL [4, 24] was 1310 mg/kg/day and the LOAEL [4, 24] was 1310 mg/kg/day. The NEL [4, 24] was 323 mg/kg/day, the NOAEL [4, 24] was 323 mg/kg/day and the LOAEL [5, 25] was > 1880 mg/kg/day. The NOAEL [5, 25] was ≥ 1880 mg/kg/day, the LEL [5, 26] was 74.6 mg/kg/day and the NEL [5, 26] was < 74.6 mg/kg/day. The LEL [6, 27] was 1000 mg/kg/day, the LOAEL [6, 27] was > 1000 mg/kg/day and the NEL [6, 27] was 500 mg/kg/day. For the same compound, the NOAEL [6, 27] was ≥ 1000 mg/kg/day, the LEL [6, 28] was 500 mg/kg/day and the LOAEL [6, 28] was 500 mg/kg/day. It also gave an NEL [6, 28] of 100 mg/kg/day, an NOAEL [6, 28] of 100 mg/kg/day and an LEL [7] of 860 mg/kg/day. The LOAEL [7] was 860 mg/kg/day, the NEL [7] was 205 mg/kg/day and the NOAEL [7] was 205 mg/kg/day.

CCC([O-])=C1C(=O)CC(C(=O)[O-])CC1=O.[Ca+2] (stereo not given) [Prohexadione-calcium] was tested, and the LEL [8] was 734 mg/kg/day, the LOAEL [8] was 734 mg/kg/day and the NEL [8] was 73.1 mg/kg/day. The NOAEL [8] was 73.1 mg/kg/day, the LEL [9, 29] was 385 mg/kg/day and the LOAEL [9, 29] was 3850 mg/kg/day. For the same compound, the NEL [9, 29] was 35.5 mg/kg/day, the NOAEL [9, 29] was 385 mg/kg/day and the LOAEL ([9]; group: parental, systemic / in life observation / mortality / mortality) was 385 mg/kg/day. The NOAEL ([9]; group: parental, systemic / in life observation / mortality / mortality + systemic / in life observation / body weight / body weight + systemic / pathology …) was 35.5 mg/kg/day, the LEL [9, 30] was 35.5 mg/kg/day and the NEL [9, 30] was < 35.5 mg/kg/day. It also gave an LOAEL ([10]; systemic / hematology / leukocyte (wbc) count differential / leukocyte (wbc)) of 469 mg/kg/day, an NOAEL ([10]; systemic / hematology / leukocyte (wbc) count differential / leukocyte (wbc) + systemic / in life observation / body weight / body weight + …) of 93.9 mg/kg/day and an LEL ([10]; systemic / pathology microscopic / thyroid gland / dilatation) of 114 mg/kg/day. The NEL ([10]; systemic / pathology microscopic / thyroid gland / dilatation + systemic / in life observation / body weight / body weight + systemic / in …) was 22.3 mg/kg/day, the LEL [11] was 200 mg/kg/day and the LOAEL [11] was 200 mg/kg/day. For the same compound, the NEL [11] was 40 mg/kg/day, the NOAEL [11] was 40 mg/kg/day and the LEL [12] was 2850 mg/kg/day. For the same compound, the LOAEL [12] was 2850 mg/kg/day, the NEL [12] was 279 mg/kg/day and the NOAEL [12] was 279 mg/kg/day. For the same compound, the LEL [13] was 200 mg/kg/day, the LOAEL [13] was 200 mg/kg/day and the NEL [13] was 20 mg/kg/day. The NOAEL [13] was 20 mg/kg/day, the NEL [14, 31] was 80 mg/kg/day and the NOAEL [14, 31] was 80 mg/kg/day. The LOAEL ([14]; systemic / clinical chemistry / potassium / potassium + systemic / pathology microscopic / kidney / dilatation) was 400 mg/kg/day and the LEL ([14]; systemic / clinical chemistry / potassium / potassium + systemic / pathology microscopic / kidney / dilatation + systemic / in life …) was 400 mg/kg/day.

Work on COP(=O)(OC)SCn1c(=O)oc2cc(Cl)cnc21 [Azamethiphos] yielded an LEL [15, 32] of 10 mg/kg/day, an LOAEL [15, 32] of 10 mg/kg/day and an NEL [15, 32] of 2 mg/kg/day. For the same compound, the NOAEL [15, 32] was 2 mg/kg/day, the LOAEL [15, 29] was 50 mg/kg/day and the LEL [15, 33] was 50 mg/kg/day. For the same compound, the NEL [15, 33] was 10 mg/kg/day, the NOAEL [15, 33] was 10 mg/kg/day and the LEL [15, 34] was 10 mg/kg/day. The LOAEL [15, 34] was 10 mg/kg/day, the NEL [15, 34] was 2 mg/kg/day and the NOAEL [15, 34] was 2 mg/kg/day. It also gave an LEL [15, 35] of 50 mg/kg/day, an LOAEL [15, 35] of 50 mg/kg/day and an NEL [15, 35] of 10 mg/kg/day. It also gave an NOAEL [15, 35] of 10 mg/kg/day, an LOAEL [16, 36] of 8.1 mg/kg/day and an NOAEL [16, 36] of 0.8 mg/kg/day. The LEL [16, 37] was 1.1 mg/kg/day, the NEL [16, 37] was < 1.1 mg/kg/day and the LEL [16, 38] was 0.8 mg/kg/day. For the same compound, the NEL [16, 38] was < 0.8 mg/kg/day, the LOAEL [16, 39] was > 62.6 mg/kg/day and the NOAEL [16, 39] was ≥ 62.6 mg/kg/day. For the same compound, the LEL [17, 40] was 6.2 mg/kg/day, the NEL [17, 40] was < 6.2 mg/kg/day and the LOAEL ([17]; systemic / pathology microscopic / intestine small / hyperplasia) was 60.2 mg/kg/day. The NOAEL ([17]; systemic / pathology microscopic / intestine small / hyperplasia + systemic / hematology / hematocrit (hct) / hematocrit (hct) + systemic / …) was 6.2 mg/kg/day.

Work on CCOP(=O)([O-])C(N)=O.[NH4+] [Fosamine ammonium] yielded an LEL [18, 41] of 50 mg/kg/day, an LOAEL [18, 41] of 50 mg/kg/day and an NEL [18, 42] of 10 mg/kg/day. The NOAEL [18, 42] was 10 mg/kg/day.

In the case of CC(C)(C)C(O)(CCc1ccc(Cl)cc1)Cn1cncn1 (stereo not given) [Tebuconazole], the LEL [19] is reported as 4.39 mg/kg/day, the LOAEL [19] is reported as 4.39 mg/kg/day and the NEL [19] is reported as 2.96 mg/kg/day. The NOAEL [19] was 2.96 mg/kg/day, the LEL [20, 43] was 60 mg/kg/day and the LOAEL [20, 43] was > 60 mg/kg/day. For the same compound, the NEL [20, 43] was 20 mg/kg/day, the NOAEL [20, 43] was ≥ 60 mg/kg/day and the LEL [20, 44] was 60 mg/kg/day. For the same compound, the LOAEL [20, 44] was > 60 mg/kg/day, the NEL [20, 44] was 20 mg/kg/day and the NOAEL [20, 44] was ≥ 60 mg/kg/day. The LEL [20, 34] was 60 mg/kg/day, the LOAEL [20, 34] was > 60 mg/kg/day and the NEL [20, 34] was 20 mg/kg/day. The NOAEL [20, 34] was ≥ 60 mg/kg/day, the LEL [21, 45] was 15.5 mg/kg/day and the NEL [21, 45] was < 15.5 mg/kg/day. It also gave an LOAEL [21, 46] of 77.3 mg/kg/day and an NOAEL [21, 46] of 15.5 mg/kg/day.
